Results reported in US9518008B2, “(1S,2S,3S,4R)-3-[(1S)-1-acetylamino-2-ethyl-butyl]-4-uanidino-2-hydroxyl-cyclopentyl-1-carboxylic acid hydrates pharmaceutical uses thereof” (Institute of Pharmacology and Toxicology Academy of …, priority 2007, dated 2016).
Like-named read-outs stand apart in the source and are kept apart here.

Legend:
[1] = Determination of hygroscopicity (high humidity test); format: physicochemical; details: for weight gain: ten-day observation test, sealed vessel, room temperature, high relative humidity
Experimental: The hygroscopicity of the compound of the invention can be tested by a standard hygroscopicity test method. For example, the compound is stored in a sealed vessel at room temperature at a relative humidity of 92.5%, 80% or 75%, and the change in moisture content of the compound is tested by sampling at regular intervals.
At the 5th and 10th days, the products were sampled and determined in aspect of important items relating to stability investigation. […] If the weight gain of a product due to moisture absorption was more than 5%, the product was further experimented according to the same method under a relative humidity of 75%±5%. If the weight gain of a product due to moisture absorption was less than 5%, and other items thereof under investigation met the relevant requirements, no more experiment was needed. The humidity-constant condition could be achieved by placing a saturated saline solution at the lower part of a sealed vessel, e.g., a desiccator, and a NaCl saturated solution (15.5-60° C., a relative humidity of 75%±1%) or a KNO3 saturated solution (25° C., a relative humidity of 92.5%) may be selected according to the requirement of different relative humidity.

[2] = test system: influenza virus strain FM1 (H1N1); assay: Anti-influenza activity in infected mice (survival); format: in vivo, mice (BALB/C); details: 5 times, 14th day after infection
Experimental: A virus drip is prepared typically by including 500 pfu (plaque forming unit) of mice-compliance influenza virus strain in 50 μl phosphate buffer (containing 0.42% bovine serum albumin), and then dropped into nasal cavity of mice to infect them (BALB/C, female, aged 5-6 weeks, weighted 20 g). The compound of the invention is suspended in physiological saline to obtain different doses, typically from 2.5 mg/kg to 40 mg/kg, and is administered to the mice at different time before and after the viral infection, typically administered by intraperitoneal injection for 5 times, i.e., 1 hour, and 2, 3, 4, 5 days after the viral infection. The assay is performed by using 8 or 12, typically 10 mice. The result is expressed by the ratio of the number of survival mice the 14th day after the viral infection to the number of the mice in assay.
A solution was prepared by including 500 pfu (plaque forming unit) of mice-compliance influenza virus strain FM1 (H1N1) in 50 μl phosphate buffer (containing 0.42% bovine serum albumin), and then dropped into nasal cavity of mice (BALB/C, female, aged 5-6 weeks, weighted 20 g) to infect them with an infective dose of 23.7LD50. The compound of the invention was suspended in physiological saline, and was administered in doses of 2.5 mg/kg, 5 mg/kg, 10 mg/kg, 20 mg/kg to the mice by intraperitoneal injection for 5 times, i.e., 1 hour, and 2, 3, 4, 5 days after the viral infection, respectively. The assay was performed by 10 mice. The result was expressed by the ratio of the number of survival mice the 14th day after the viral infection to the number of the mice in assay.

[3] = Stability of RWJ270201 in aqueous solution; format: physicochemical; details: as shown by study
[4] = test system: NA of 7 influenza A virus stains; details: 7 influenza A virus strains; cited from earlier work
[5] = test system: NA of 4 influenza B virus strains; details: cited from earlier work
[6] = test system: influenza virus strain A/HongKong/156/97 (H5N1); details: cited from earlier work
[7] = test system: influenza virus strain B/Hong Kong/5/72; details: 1 mg/kg/day; cited from earlier work
[8] = test system: influenza virus strain A/Bayern/07/95 (H1N1); details: 10 mg/kg/day; cited from earlier work
[9] = test system: influenza virus strain A/NWS/33 (H1N1); details: 10 mg/kg/day; cited from earlier work
[10] = rats, 1000 mg/kg/day for 5 days; cited from earlier work
[11] = Accelerated stability test of the hydrates; details: for Character / Content / Change in weight: 40° C., 75% RH
Experimental: The stability of the compound of the invention can be tested by a standard stability test method, such as the methods specified in Guidelines for Stability Testing of Drug Substances involved in Appendix XIX C of Chinese Pharmacopoeia (2005 edition). For example, the stability of the compound of the general formula (I) can be tested by an accelerated stability test method, e.g., the stability of the compound of the general formula (I), at 0, 1, 2, 3, 6 months, is tested respectively under the conditions: 40° C., 75% relative humidity; 40° C., 92.5% relative humidity; and 80° C. The change in principal agent and relevant substances can be analyzed by thin layer chromatography, high performance liquid chromatography, and etc.
The device used should be capable of controlling temperature with a precise of ±2° C., and relative humidity with a precise of ±5%, and could monitor true temperature and humidity. The products were sampled respectively at the end of the 1, 2, 3 and 6 months during the test, and determined in aspect of important items relating to stability investigation.

[12] = Dissolution behavior in water; format: physicochemical; details: for dissolution behavior: 100 ml: 300 mg
Experimental: (1) water for injection (room temperature)
(2) water for injection (80° C.)
(3) water for injection (room temperature, adjusted to be acidic with hydrochloric acid)
(4) water for injection (adjusted to be basic with disodium hydrogen phosphate)

[13] = Influence of different acidic conditions (pH) on stability of trihydrate solution, sterilization; format: physicochemical; details: conclusion from sterilization and 60° C. data
Experimental: The resulting solutions were high pressure steam sterilized at 115° C. for 30 minutes. Then, the solutions were sampled for the determination of change in pH value and change in amount of relevant substances.

[14] = biological target: Influenza A virus (H3N2) neuraminidase (Influenza A virus, UniProt P03482); assay: Neuraminidase inhibition by fluorimetry with 4-MUNANA; format: biochemical
Sequence of Influenza A virus (H3N2) neuraminidase (P03482 whole entry, looked up): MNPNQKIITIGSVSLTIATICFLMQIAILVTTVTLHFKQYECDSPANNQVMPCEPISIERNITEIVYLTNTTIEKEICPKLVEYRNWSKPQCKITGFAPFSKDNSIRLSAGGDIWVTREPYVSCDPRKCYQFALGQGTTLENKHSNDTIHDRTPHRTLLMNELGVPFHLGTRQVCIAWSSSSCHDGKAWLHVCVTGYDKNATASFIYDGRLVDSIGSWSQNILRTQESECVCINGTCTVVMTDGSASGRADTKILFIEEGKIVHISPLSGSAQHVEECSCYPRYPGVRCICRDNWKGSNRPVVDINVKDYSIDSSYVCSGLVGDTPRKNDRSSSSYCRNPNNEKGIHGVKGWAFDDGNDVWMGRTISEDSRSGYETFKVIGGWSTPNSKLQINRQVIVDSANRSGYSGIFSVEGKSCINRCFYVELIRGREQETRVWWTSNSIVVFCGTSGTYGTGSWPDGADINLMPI

[15] = test system: Influenza B virus (B/Jing Fang/76/98) neuraminidase; assay: as above; format: biochemical
[16] = Determination of solubility; details: Solvent: Water; 25±2° C.
Experimental: According to the invention, the solubility of the compound of the invention can be tested by using a standard solubility test method.
While vigorously stirring for 30 seconds every 5 minutes, the dissolution of the powder was observed within 30 minutes.

[17] = Relative humidity 92.5%, 25° C.
[18] = Con. 0.01 nM, virus concentration NA 1/40
[19] = Con. 0.1 nM, virus concentration NA 1/40
[20] = Con. 1 nM, virus concentration NA 1/40
[21] = Con. 10 nM, virus concentration NA 1/40
[22] = Con. 100 nM, virus concentration NA 1/40
[23] = virus concentration NA 1/40, read-out: IC50

Compound: CCC(CC)[C@H](NC(C)=O)[C@H]1[C@H](O)[C@@H](C(=O)O)C[C@H]1NC(=N)N [Anhydrous, (1S,2S,3S,4R)-3-[(1S)-1-acetylamino-2-ethyl-butyl]-4-guanidino-2-hydroxy-cyclopentyl-1-carboxylic acid, reference compound]
- Hygroscopicity at the 5th day ([1]; Relative humidity 75%): 7.23%
- Hygroscopicity at the 10th day ([1]; Relative humidity 75%): 12.88%
- Hygroscopicity at the 5th day [1, 17]: 8.38%
- Hygroscopicity at the 10th day [1, 17]: 13.53%
- hygroscopicity ([1]; as shown by study): easily hygroscopic
- weight gain [1]: about 13.53%
- Survival number ([2]; 2.5 mg/kg intraperitoneal): 5/10
- Survival rate ([2]; 2.5 mg/kg intraperitoneal): 50%
- Survival number ([2]; 5.0 mg/kg intraperitoneal): 7/10
- Survival rate ([2]; 5.0 mg/kg intraperitoneal): 70%
- Survival number ([2]; 10 mg/kg intraperitoneal): 7/10
- Survival rate ([2]; 10 mg/kg intraperitoneal): 70%
- Survival number ([2]; 20 mg/kg intraperitoneal): 9/10
- Survival rate ([2]; 20 mg/kg intraperitoneal): 90%
- stability in aqueous solution [3]: unstable in aqueous solution
- IC50 [4]: 0.1 to 1.4 nM
- IC50 [5]: 0.6 to 11 nM
- Survival rate ([6]; group of 10 mg/kg/day): up to 100%
- death rate ([6]; infected mice): markedly reduce the death rate
- diffusion of virus to brain tissue ([6]; infected mice): prevent the diffusion of virus to brain tissue
- virus titer in lung tissue ([6]; infected mice): markedly reduce virus titer in lung tissue
- Survival rate ([6]; mouse, in vivo, 0.1 mg/kg/day): up to 70%
- arterial oxygen saturation [7]: prevent the reduction in arterial oxygen saturation
- death rate [7]: reduce the death rate
- efficacy compared with oseltamivir [7]: more effective than oseltamivir
- lung consolidation [7]: inhibit lung consolidation
- effect on infection [8]: effectively antagonize the infection
- death rate [9]: reduce the death rate
- toxic side effect [10]: no toxic side effect was found

Compound: CCC(CC)[C@H](NC(C)=O)[C@H]1[C@H](O)[C@@H](C(=O)O)C[C@H]1NC(=N)N.O.O.O [Trihydrate, (1S,2S,3S,4R)-3-[(1S)-1-acetylamino-2-ethyl-butyl]-4-guanidino-2-hydroxy-cyclopentyl-1-carboxylic acid trihydrate]
- Hygroscopicity at the 5th day ([1]; Relative humidity 75%): 1.68%
- Hygroscopicity at the 10th day ([1]; Relative humidity 75%): 1.83%
- Hygroscopicity at the 5th day [1, 17]: 2.11%
- Hygroscopicity at the 10th day [1, 17]: 2.24%
- weight gain [1]: about 2.24%
- Character ([11]; 0 month): White solid
- Content ([11]; 0 month): 99.90%
- Change in weight ([11]; 1 month): +0.01%
- Character ([11]; 1 month): White solid
- Content ([11]; 1 month): 99.95%
- Change in weight ([11]; 2 months): −0.02%
- Character ([11]; 2 months): White solid
- Content ([11]; 2 months): 99.97%
- Change in weight ([11]; 3 months): +0.01%
- Character ([11]; 3 months): White solid
- Content ([11]; 3 months): 99.96%
- Change in weight ([11]; 6 months): +0.01%
- Character ([11]; 6 months): White solid
- Content ([11]; 6 months): 99.91%
- stability ([11]; stability test of 1, 2, 3, 6 months): good stability
- dissolution behavior ([12]; (1) water for injection (room temperature)): slowly dissolved
- dissolution behavior ([12]; (2) water for injection (80° C.)): rapidly dissolved
- dissolution behavior ([12]; (3) water for injection, room temperature, acidic with hydrochloric acid): relatively easily dissolved
- dissolution behavior, condition (3) compared with (4) ([12]; (4) water for injection adjusted to be basic with disodium hydrogen phosphate): more easily dissolved under acidic condition
- optimum pH value (stability in solution) [13]: 4.5-6.5
- inhibitory rate IR [14, 18]: 0.63%
- inhibitory rate IR ([14]; Con. 0.01 nM, virus concentration NA 1/80): 12.33%
- inhibitory rate IR [14, 19]: 13.23%
- inhibitory rate IR ([14]; Con. 0.1 nM, virus concentration NA 1/80): 24.04%
- inhibitory rate IR [14, 20]: 60.99%
- inhibitory rate IR ([14]; Con. 1 nM, virus concentration NA 1/80): 63.20%
- inhibitory rate IR [14, 21]: 99.25%
- inhibitory rate IR ([14]; Con. 10 nM, virus concentration NA 1/80): 98.80%
- inhibitory rate IR [14, 22]: 100.43%
- inhibitory rate IR ([14]; Con. 100 nM, virus concentration NA 1/80): 99.89%
- IC50 ([14]; average of NA 1/40 and NA 1/80, read-out: Average IC50): 0.542 nM
- IC50 [14, 23]: 0.673 nM
- IC50 ([14]; virus concentration NA 1/80, read-out: IC50): 0.411 nM
- inhibitory rate IR ([15]; Con. 0.01 nM, virus concentration NA 1/20): 8.81%
- inhibitory rate IR [15, 18]: 7.92%
- inhibitory rate IR ([15]; Con. 0.1 nM, virus concentration NA 1/20): 15.31%
- inhibitory rate IR [15, 19]: 19.17%
- inhibitory rate IR ([15]; Con. 1 nM, virus concentration NA 1/20): 39.11%
- inhibitory rate IR [15, 20]: 44.84%
- inhibitory rate IR ([15]; Con. 10 nM, virus concentration NA 1/20): 82.01%
- inhibitory rate IR [15, 21]: 81.45%
- inhibitory rate IR ([15]; Con. 100 nM, virus concentration NA 1/20): 97.78%
- inhibitory rate IR [15, 22]: 96.71%
- IC50 ([15]; average of NA 1/20 and NA 1/40, read-out: Average IC50): 1.07 nM
- IC50 ([15]; virus concentration NA 1/20, read-out: IC50): 1.14 nM
- IC50 [15, 23]: 0.998 nM
- Survival number ([2]; 2.5 mg/kg intraperitoneal): 6/10
- Survival rate ([2]; 2.5 mg/kg intraperitoneal): 60%
- Survival number ([2]; 5.0 mg/kg intraperitoneal): 7/10
- Survival rate ([2]; 5.0 mg/kg intraperitoneal): 70%
- Survival number ([2]; 10 mg/kg intraperitoneal): 8/10
- Survival rate ([2]; 10 mg/kg intraperitoneal): 80%
- Survival number ([2]; 20 mg/kg intraperitoneal): 9/10
- Survival rate ([2]; 20 mg/kg intraperitoneal): 90%

Compound: (1S,2S,3S,4R)-3-[(1S)-1-acetylamino-2-ethyl-butyl]-4-guanidino-2-hydroxy-cyclopentyl-1-carboxylic acid dihydrate
- Solubility [16]: 50 mg/mL
- Hygroscopicity at the 5th day ([1]; Relative humidity 75%): 2.21%
- Hygroscopicity at the 10th day ([1]; Relative humidity 75%): 2.54%
- Hygroscopicity at the 5th day [1, 17]: 2.54%
- Hygroscopicity at the 10th day [1, 17]: 2.98%
